# Measurements as given in patent US8822449B2, “Substituted aminoindanes and analogs thereof, and the pharmaceutical use thereof” (Sanofi, priority 2008, dated 2014).
# Molecular target: T1, sodium-proton exchanger of subtype 3 (NHE3) (Homo sapiens, UniProt P48764)
# T1 construct: expressed in transfected cells
# T1 sequence (P48764 26-834): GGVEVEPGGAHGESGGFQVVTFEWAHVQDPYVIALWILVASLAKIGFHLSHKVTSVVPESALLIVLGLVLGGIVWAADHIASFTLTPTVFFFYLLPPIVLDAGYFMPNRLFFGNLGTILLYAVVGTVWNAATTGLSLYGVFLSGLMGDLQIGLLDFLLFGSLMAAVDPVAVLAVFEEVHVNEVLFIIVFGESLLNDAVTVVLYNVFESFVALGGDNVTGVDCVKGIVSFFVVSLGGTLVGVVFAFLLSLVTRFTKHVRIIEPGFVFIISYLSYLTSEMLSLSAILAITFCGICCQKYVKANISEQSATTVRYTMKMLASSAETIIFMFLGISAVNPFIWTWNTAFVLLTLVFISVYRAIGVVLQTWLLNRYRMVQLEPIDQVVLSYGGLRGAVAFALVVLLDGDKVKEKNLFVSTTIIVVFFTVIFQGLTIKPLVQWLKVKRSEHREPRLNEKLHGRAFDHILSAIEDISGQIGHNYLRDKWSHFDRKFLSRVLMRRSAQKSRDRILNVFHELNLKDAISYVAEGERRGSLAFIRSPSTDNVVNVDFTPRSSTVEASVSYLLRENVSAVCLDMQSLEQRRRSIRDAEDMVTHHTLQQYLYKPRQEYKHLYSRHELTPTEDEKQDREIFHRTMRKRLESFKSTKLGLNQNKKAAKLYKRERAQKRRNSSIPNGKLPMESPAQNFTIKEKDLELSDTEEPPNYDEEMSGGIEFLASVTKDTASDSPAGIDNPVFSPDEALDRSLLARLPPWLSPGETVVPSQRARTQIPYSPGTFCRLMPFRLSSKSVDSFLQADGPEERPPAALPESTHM
# Experiment: Recovery of intracellular pH (pHi) after acidification in LAP1 cells stably expressing NHE3 (BCECF fluorescence, FLIPR)
# Assay type: cell-based
# Conditions: LAP1 cells stably expressing NHE3; pH recovery after acidification; range 1 is % inhibition at 10 μM; read-out: Activity range (inhibitory effect on NHE3)
Compound,IC50 [nM],inhibition at 10 µM [%]
"CC(=O)Nc1cccc(O[C@@H]2c3cc(Cl)cc(F)c3C[C@H]2N2CCC[C@@H](N)C2)c1 (racemic) [Example 678, N-{3-[rac-trans-(1,2)-2-((R)-3-aminopiperidin-1-yl)-6-chloro-4-fluoroindan-1-yloxy]phenyl}acetamide]",< 1000,
"CCc1ccc(O[C@@H]2c3ccccc3C[C@H]2N2C[C@H]3CNC[C@H]3C2)c(C(C)(C)C)c1 (racemic) [Example 12, 2-[rac-trans-(1,2)-1-(2-tert-butyl-4-ethylphenoxy)indan-2-yl]octahydropyrrolo[3,4-c]pyrrole]",< 1000,
"Clc1cnccc1O[C@H]1c2ccccc2C[C@@H]1N1CCCC1 (racemic) [Example 441, 3-chloro-4-(2-pyrrolidin-1-ylindan-1-yloxy)pyridine]",1000 to 10000,
"N#Cc1ccc(O[C@@H]2c3ccccc3C[C@H]2N2C[C@H]3CNC[C@H]3C2)c(Cl)c1 (racemic) [Example 445, 3-chloro-4-[rac-trans-(1,2)-2-(hexahydropyrrolo[3,4-c]pyrrol-2-yl)indan-1-yloxy]benzonitrile]",< 1000,
"Cn1ccn(-c2cccc(O[C@H]3c4cc(Cl)cc(Cl)c4C[C@@H]3N3CCNCC3)c2)c1=O (racemic) [Example 257, 1-[3-(rac-trans-(1,2)-4,6-dichloro-2-piperazin-1-ylindan-1-yloxy)phenyl]-3-methyl-1,3-dihydroimidazol-2-one]",< 1000,
"Cn1ccn(-c2ccc(Cl)c(O[C@H]3c4cc(F)cc(F)c4C[C@@H]3N3CC[C@@H](O)C3)c2)c1=O [Example 338, 1-{4-chloro-3-[(1S,2S)-4,6-difluoro-2-((R)-3-hydroxypyrrolidin-1-yl)indan-1-yloxy]phenyl}-3-methyl-1,3-dihydroimidazol-2-one]",1000 to 10000,
"CCCC1(N)CCCN([C@H]2Cc3c(Cl)cc(Cl)cc3[C@@H]2Oc2ccc(S(C)(=O)=O)cc2)C1 (stereo partly drawn) [Example 300, 1-[trans-(1S,2S)-4,6-dichloro-1-(4-methanesulfonylphenoxy)indan-2-yl]-3-propylpiperidin-3-ylamine]",1000 to 10000,
"NCC1CCN([C@@H]2Cc3ccccc3[C@H]2Oc2ccc(S(N)(=O)=O)c(Cl)c2Cl)C1 (mixture of isomers) [Example 538, 4-[rac-trans-(1,2)-2-(3-aminomethylpyrrolidin-1-yl)indan-1-yloxy]-2,3-dichlorobenzenesulfonamide]",1000 to 10000,
"Brc1ccc(O[C@@H]2c3ccccc3C[C@H]2N2C[C@H]3CNC[C@H]3C2)c(-c2cc[nH]n2)c1 (racemic) [Example 20, 2-{rac-trans-(1,2)-1-[4-bromo-2-(1H-pyrazol-3-yl)phenoxy]indan-2-yl}octahydropyrrolo[3,4-c]pyrrole]",1000 to 10000,
"Clc1cnccc1O[C@H]1c2ccccc2C[C@@H]1CN1CCOCC1 (racemic) [Example 486, 4-[1-(3-chloropyridin-4-yloxy)indan-2-ylmethyl]morpholine]",,20 to 50
"Cc1c(O[C@H]2c3cc(Cl)cc(Cl)c3C[C@@H]2N2CC[C@@H](O)C2)ccc(-n2c(C)nnc2C)c1C [Example 127, (R)-1-{trans-(1S,2S)-4,6-dichloro-1-[4-(3,5-dimethyl-[1,2,4]triazol-4-yl)-2,3-dimethylphenoxy]indan-2-yl}pyrrolidin-3-ol]",< 1000,
"CC(=O)Nc1cccc(O[C@H]2c3cc(F)cc(Cl)c3C[C@@H]2N2CCC[C@@H](N)C2)c1 (racemic) [Example 677, N-{3-[rac-trans-(1,2)-2-((R)-3-aminopiperidin-1-yl)-4-chloro-6-fluoroindan-1-yloxy]phenyl}acetamide]",< 1000,
"O=C1CCC(=O)N1c1ccc(O[C@H]2c3cc(Cl)cc(Cl)c3C[C@@H]2N2CC[C@@H](O)C2)c(Cl)c1 [Example 322, 1-{3-chloro-4-[(1S,2S)-4,6-dichloro-2-((R)-3-hydroxypyrrolidin-1-yl)indan-1-yloxy]phenyl}pyrrolidine-2,5-dione]",< 1000,
"COCCc1ccc(O[C@@H]2c3ccccc3C[C@H]2N2CCC(CN)C2)cc1 (mixture of isomers) [Example 598, C-(1-{rac-trans-(1,2)-1-[4-(2-methoxyethyl)phenoxy]indan-2-yl}pyrrolidin-3-yl)methylamine]",1000 to 10000,
"O=S(=O)(c1ccc(O[C@H]2c3cc(Cl)cc(Cl)c3C[C@@H]2N2CC[C@@H](O)C2)cc1)N1CCOCC1 [Example 744, (R)-1-{trans-(1S,2S)-4,6-Dichloro-1-[4-(morpholine-4-sulfonyl)-phenoxy]-indan-2-yl}-pyrrolidin-3-ol]",1000 to 10000,
"CS(=O)(=O)c1ccc(O[C@H]2c3cc(Cl)cc(Cl)c3C[C@@H]2N2CCC3(CCNC3)C2)cc1 (mixture of isomers) [Example 378, 2-[trans-(1S,2S)-4,6-dichloro-1-(4-methanesulfonylphenoxy)indan-2-yl]-2,7-diaza-spiro[4.4]nonane]",< 1000,
"N#Cc1ccc(O[C@H]2c3cc(Cl)cc(Cl)c3C[C@@H]2N2CC[C@@H](O)C2)c(F)c1 [Example 554, 4-[trans-(1S,2S)-4,6-dichloro-2-((R)-3-hydroxypyrrolidin-1-yl)indan-1-yloxy]-3-fluorobenzonitrile]",1000 to 10000,
"CS(=O)(=O)c1ccc(O[C@H]2c3c(ccc(Cl)c3Cl)C[C@@H]2N2CCCNCC2)cc1 (racemic) [Example 288, 1-[rac-trans-(1,2)-6,7-dichloro-1-(4-methanesulfonylphenoxy)indan-2-yl]-[1,4]diazepane]",< 1000,
"COC(=O)c1nccn1-c1ccc(O[C@H]2c3cc(Cl)cc(Cl)c3C[C@@H]2N2CC[C@@H](O)C2)c(F)c1 [Example 740, 1-{4-[trans-(1S,2S)-4,6-Dichloro-2-((R)-3-hydroxy-pyrrolidin-1-yl)-indan-1-yloxy]-3-fluoro-phenyl}-1H-imidazole-2-carboxylic acid methyl ester]",< 1000,
"CS(=O)(=O)c1ccc(O[C@H]2c3cc(Cl)cc(Cl)c3C[C@@H]2N2CC3C[C@H]2CN3)cc1 [Example 209, (S)-2-[trans-(1S,2S)-4,6-dichloro-1-(4-methanesulfonylphenoxy)indan-2-yl]-2,5-diazabicyclo[2.2.1]heptane]",< 1000,
"CS(=O)(=O)c1ccc(O[C@H]2c3c(Cl)cc(Cl)cc3C[C@@H]2N2CCNCC2)cc1 (racemic) [Example 287, 1-[rac-trans-(1,2)-5,7-dichloro-1-(4-methanesulfonylphenoxy)indan-2-yl]piperazine]",< 1000,
"NC(=O)c1ccc(O[C@@H]2c3ccccc3C[C@H]2N2CCC[C@H](N)C2)cc1 (racemic) [Example 537, 4-[rac-trans-(1,2)-2-((S)-3-aminopiperidin-1-yl)indan-1-yloxy]benzamide]",1000 to 10000,
"Fc1ccc(O[C@H]2c3cc(Cl)cc(Cl)c3C[C@@H]2N2CCNCC2)c(-c2cc[nH]n2)c1 [Example 309, 1-{(1S,2S)-4,6-dichloro-1-[4-fluoro-2-(1H-pyrazol-3-yl)phenoxy]indan-2-yl}piperazine]",< 1000,
"O=C1CNC(=O)N1c1ccc(F)c(O[C@H]2c3cc(Cl)cc(Cl)c3C[C@@H]2N2CC[C@@H](O)C2)c1 [Example 417, 3-{3-[(1S,2S)-4,6-dichloro-2-((R)-3-hydroxypyrrolidin-1-yl)indan-1-yloxy]-4-fluorophenyl}imidazolidine-2,4-dione]",1000 to 10000,
"CS(=O)(=O)c1ccc(O[C@H]2c3cc(F)ccc3C[C@@H]2N2CCNCC2)cc1 (racemic) [Example 294, 1-[rac-trans-(1,2)-6-fluoro-1-(4-methanesulfonylphenoxy)indan-2-yl]piperazine]",1000 to 10000,
"CS(=O)(=O)c1ccc(O[C@H]2c3cc(Cl)cc(Cl)c3C[C@@H]2N2CC(O)C2)cc1 [Example 307, 1-[trans-(1S,2S)-4,6-dichloro-1-(4-methanesulfonylphenoxy)indan-2-yl]azetidin-3-ol]",1000 to 10000,
"Cc1nnc(C)n1-c1ccc(O[C@H]2c3c(Cl)sc(Cl)c3CC[C@@H]2N2CCCC2)cc1 (racemic) [Example 496, 4-[4-(1,3-dichloro-5-pyrrolidin-1-yl-4,5,6,7-tetrahydrobenzo[c]thiophen-4-yloxy)phenyl]-3,5-dimethyl-4H-[1,2,4]triazole]",1000 to 10000,
"N[C@@H]1CCCN([C@H]2Cc3c(Cl)cc(Cl)cc3[C@@H]2Oc2ccc(S(N)(=O)=O)cc2)C1 [Example 480, 4-[(1S,2S)-2-((R)-3-aminopiperidin-1-yl)-4,6-dichloroindan-1-yloxy]benzenesulfonamide]",< 1000,
"O=S1(=O)CCCN1c1cccc(O[C@H]2c3cc(Cl)cc(Cl)c3C[C@@H]2N2CC[C@@H](O)C2)c1 [Example 123, (R)-1-{trans-(1S,2S)-4,6-dichloro-1-[3-(1,1-dioxo-1lambda6-isothiazolidin-2-yl)phenoxy]indan-2-yl}pyrrolidin-3-ol]",1000 to 10000,
"CS(=O)(=O)c1ccc(O[C@H]2c3cc(Cl)cc(Cl)c3C[C@@H]2N2CCC(S(C)(=O)=O)C2)cc1 (mixture of isomers) [Example 249, 1-[(1S,2S)-4,6-dichloro-1-(4-methanesulfonylphenoxy)indan-2-yl]-3-methanesulfonylpyrrolidine]",,20 to 50
